According to patent publication US10738057B2, “Tertiary alcohols as PI3K-γ inhibitors” (Incyte Corporation, priority 2017, dated 2020):
Where a name gives a salt, the structure may show the parent alone. Read-outs that look alike come from different tables or passages of the source.

Legend:
[1] = system: Phosphorylated Ribosomal Protein S6 (RPS6) in THP-1 cells; assay: THP-1 RPS6 ELISA assay; assay type: cell-based, Human; conditions: serum starved, 2 h compound, 10 nM MCP-1 for 15 min, phospho-RPS6 ELISA, read-out: PI3Kγ_THP1_RPS6_ELISA IC50
Method in brief: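 Serum-starved THP-1 cells (2×10^5/well, RPMI) preincubated with compound 2 h at 37° C, then stimulated with 10 nM MCP-1 for 15 min. Lysates assayed by phospho-RPS6 ELISA, absorbance 450 nm (540 nm correction); IC50 from percent inhibition versus log concentration.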

[2] = biological target: PI3Kδ (p110δ/p85α) Recombinant Human Protein (Homo sapiens (Human), UniProt O00329); assay: PI3Kδ scintillation proximity assay; assay type: biochemical; conditions: 20 μM PIP2, 2 μM ATP, 3.4 nM PI3Kδ, 120 min, room temperature
Sequence of PI3Kδ (p110δ/p85α) Recombinant Human Protein (O00329 whole entry): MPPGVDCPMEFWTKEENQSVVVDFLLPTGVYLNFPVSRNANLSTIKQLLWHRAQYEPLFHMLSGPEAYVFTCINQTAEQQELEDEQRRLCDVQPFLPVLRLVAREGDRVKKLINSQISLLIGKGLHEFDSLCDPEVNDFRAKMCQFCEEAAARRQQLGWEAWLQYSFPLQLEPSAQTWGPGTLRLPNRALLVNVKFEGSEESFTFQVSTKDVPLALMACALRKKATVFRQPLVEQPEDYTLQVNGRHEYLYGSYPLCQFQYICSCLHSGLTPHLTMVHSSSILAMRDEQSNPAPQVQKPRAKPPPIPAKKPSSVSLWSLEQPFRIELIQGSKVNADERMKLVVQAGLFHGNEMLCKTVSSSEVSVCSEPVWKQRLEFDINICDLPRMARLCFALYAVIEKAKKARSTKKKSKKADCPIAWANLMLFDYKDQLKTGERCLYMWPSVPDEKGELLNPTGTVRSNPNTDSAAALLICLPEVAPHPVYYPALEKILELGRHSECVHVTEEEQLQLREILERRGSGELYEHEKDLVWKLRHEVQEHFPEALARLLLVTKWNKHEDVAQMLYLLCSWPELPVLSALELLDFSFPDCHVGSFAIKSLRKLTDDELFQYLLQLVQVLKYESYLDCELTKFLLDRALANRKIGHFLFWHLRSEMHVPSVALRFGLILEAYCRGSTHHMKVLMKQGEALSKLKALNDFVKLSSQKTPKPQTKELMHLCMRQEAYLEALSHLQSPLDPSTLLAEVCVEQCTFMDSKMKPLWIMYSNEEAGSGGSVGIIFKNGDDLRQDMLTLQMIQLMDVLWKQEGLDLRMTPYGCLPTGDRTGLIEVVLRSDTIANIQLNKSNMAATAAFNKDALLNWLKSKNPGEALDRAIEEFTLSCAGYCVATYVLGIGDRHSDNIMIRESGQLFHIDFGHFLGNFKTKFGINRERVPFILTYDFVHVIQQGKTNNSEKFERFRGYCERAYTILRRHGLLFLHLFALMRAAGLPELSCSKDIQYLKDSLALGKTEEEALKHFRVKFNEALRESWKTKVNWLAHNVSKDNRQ
Sequence of PI3Kδ (p110δ/p85α) Recombinant Human Protein (P27986 whole entry partner): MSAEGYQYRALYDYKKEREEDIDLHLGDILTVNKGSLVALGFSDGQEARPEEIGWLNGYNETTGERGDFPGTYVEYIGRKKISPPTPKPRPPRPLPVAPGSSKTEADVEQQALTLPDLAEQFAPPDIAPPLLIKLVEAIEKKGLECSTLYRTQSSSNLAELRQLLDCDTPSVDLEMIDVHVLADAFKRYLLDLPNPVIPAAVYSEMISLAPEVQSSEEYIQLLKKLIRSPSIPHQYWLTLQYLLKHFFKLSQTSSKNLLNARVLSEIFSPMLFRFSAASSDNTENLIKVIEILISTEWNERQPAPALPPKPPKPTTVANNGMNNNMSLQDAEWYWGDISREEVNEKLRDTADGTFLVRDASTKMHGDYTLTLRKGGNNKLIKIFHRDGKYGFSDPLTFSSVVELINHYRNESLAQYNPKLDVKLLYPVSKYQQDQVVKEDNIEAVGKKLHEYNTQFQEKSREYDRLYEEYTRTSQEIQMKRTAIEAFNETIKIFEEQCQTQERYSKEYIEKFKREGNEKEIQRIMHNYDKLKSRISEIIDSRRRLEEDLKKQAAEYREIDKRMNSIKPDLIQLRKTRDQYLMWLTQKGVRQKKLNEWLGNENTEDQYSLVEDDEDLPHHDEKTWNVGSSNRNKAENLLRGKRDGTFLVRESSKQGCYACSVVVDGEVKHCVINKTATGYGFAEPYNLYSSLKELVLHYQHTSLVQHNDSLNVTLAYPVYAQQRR
Method in brief: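 Recombinant human p110δ/p85α was run at room temperature in 20 mM MOPS pH 6.7, 10 mM MgCl2, 5 mM DTT, 0.03% CHAPS, 2% DMSO. Substrates were 20 µM PIP2 and 2 µM ATP with [γ-33P]ATP. Product was captured overnight on WGA SPA beads and counted by scintillation; IC50 fitted from percent of solvent control versus log concentration.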

[3] = biological target: PI3Kγ (p110γ) Recombinant Human Protein (Homo sapiens (Human), UniProt P48736); assay: PI3K-γ scintillation proximity assay; assay type: biochemical; conditions: 20 μM PIP2, 2 μM ATP, 13 nM PI3Kγ, 120 min, room temperature
Sequence of PI3Kγ (p110γ) Recombinant Human Protein (P48736 whole entry): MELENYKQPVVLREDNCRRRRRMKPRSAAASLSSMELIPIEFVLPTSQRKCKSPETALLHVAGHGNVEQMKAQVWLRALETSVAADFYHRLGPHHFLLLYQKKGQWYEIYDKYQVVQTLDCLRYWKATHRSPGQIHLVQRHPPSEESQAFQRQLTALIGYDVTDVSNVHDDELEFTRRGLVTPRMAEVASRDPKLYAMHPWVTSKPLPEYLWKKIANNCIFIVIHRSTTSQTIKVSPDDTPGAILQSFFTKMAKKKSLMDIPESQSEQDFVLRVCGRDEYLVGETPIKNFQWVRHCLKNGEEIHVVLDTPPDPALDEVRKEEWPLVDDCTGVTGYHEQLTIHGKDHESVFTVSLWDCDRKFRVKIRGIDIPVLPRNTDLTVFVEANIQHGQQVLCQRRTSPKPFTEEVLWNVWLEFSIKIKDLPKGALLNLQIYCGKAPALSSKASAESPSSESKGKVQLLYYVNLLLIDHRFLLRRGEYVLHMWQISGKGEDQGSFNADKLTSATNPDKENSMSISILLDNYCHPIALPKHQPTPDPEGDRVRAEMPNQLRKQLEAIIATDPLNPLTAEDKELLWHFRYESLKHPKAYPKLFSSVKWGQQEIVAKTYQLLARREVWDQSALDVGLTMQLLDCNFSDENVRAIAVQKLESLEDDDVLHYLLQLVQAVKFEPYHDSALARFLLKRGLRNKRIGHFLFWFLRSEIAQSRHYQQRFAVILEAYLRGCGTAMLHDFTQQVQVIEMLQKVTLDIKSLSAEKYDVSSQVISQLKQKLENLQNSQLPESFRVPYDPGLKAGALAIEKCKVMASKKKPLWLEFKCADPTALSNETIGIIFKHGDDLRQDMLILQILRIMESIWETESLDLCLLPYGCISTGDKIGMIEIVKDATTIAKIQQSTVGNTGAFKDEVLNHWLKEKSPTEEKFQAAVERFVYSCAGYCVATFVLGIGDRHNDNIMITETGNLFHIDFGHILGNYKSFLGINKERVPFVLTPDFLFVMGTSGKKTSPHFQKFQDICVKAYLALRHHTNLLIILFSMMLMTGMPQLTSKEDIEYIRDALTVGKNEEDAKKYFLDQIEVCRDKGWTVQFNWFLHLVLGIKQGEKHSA
Method in brief: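 Radiometric SPA in 20 mM MOPS pH 6.7, 10 mM MgCl2, 5 mM DTT, 0.03% CHAPS, 2% DMSO. Stopped with EDTA and WGA SPA beads for scintillation counting. IC50 fitted from % solvent-control activity versus log concentration.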

[4] = Homo sapiens, THP-1, THP-1 cells

| SMILES | IC50 ([1]; THP-1 cells) [nM] | IC50 ([2]; read-out: PI3Kδ IC50) [nM] | IC50 [3] [nM] | IC50 [1, 4] [nM] | IC50 ([2]; PI3Kδ IC50 (nM)) [nM] |
| --- | --- | --- | --- | --- | --- |
| Cc1ncc(-c2cn3c(-c4cc(C(C)(O)C(F)F)ccc4C)cnc3c(N)n2)s1 (stereo not drawn) [Example 34, 2-(3-(8-Amino-6-(2-methylthiazol-5-yl)imidazo[1,2-a]pyrazin-3-yl)-4-methylphenyl)-1,1-difluoropropan-2-ol] | – | < 100 | < 100 | 100 to 500 | – |
| CNCCC(O)(c1ccc(C)c(-c2cnc3c(N)nc(C(F)(F)F)cn23)c1)C(F)(F)F (stereo not drawn) [Example 14, 2-(3-(8-Amino-6-(trifluoromethyl)imidazo[1,2-a]pyrazin-3-yl)-4-methylphenyl)-1,1,1-trifluoro-4-(methylamino)butan-2-ol bis(2,2,2-trifluoroacetate)] | – | – | < 100 | < 100 | 100 to 500 |
| Cc1ccc(C(C)(O)C(F)F)cc1-c1cnc2c(N)nc(-c3ccc(C(C)O)nc3)cn12 (single isomer, unassigned) [Example 136, 2-(3-(8-Amino-6-(6-(1-hydroxyethyl)pyridin-3-yl)imidazo[1,2-a]pyrazin-3-yl)-4-methylphenyl)-1,1-difluoropropan-2-ol] | – | 100 to 500 | < 100 | < 100 | – |
| [2H]C([2H])([2H])n1nccc1-c1cn2c(-c3cc(C(O)(CO)C(F)(F)F)ccc3C)cnc2c(N)n1 (single isomer, unassigned) [Example 66, 2-(3-(8-Amino-6-(1-(methyl-d3)-1H-pyrazol-5-yl)imidazo[1,2-a]pyrazin-3-yl)-4-methylphenyl)-3,3,3-trifluoropropane-1,2-diol] | – | < 100 | < 100 | < 100 | – |
| Cc1ccc(C(C)(O)C(F)F)cc1-c1cnc2c(N)nc(-c3cn[nH]c3)cn12 (stereo not drawn) [Example 40, 2-(3-(8-Amino-6-(1H-pyrazol-4-yl)imidazo[1,2-a]pyrazin-3-yl)-4-methylphenyl)-1,1-difluoropropan-2-ol] | – | < 100 | < 100 | 100 to 500 | – |
| Cc1nc(N)c2ncc(-c3cc(C(O)(C(F)F)C(F)F)ccc3C)n2n1 [Example 112, 2-(3-(4-Amino-2-methylimidazo[2,1-f][1,2,4]triazin-7-yl)-4-methylphenyl)-1,1,3,3-tetrafluoropropan-2-ol trifluoroacetate salt] | – | 500 to 2000 | < 100 | 500 to 1000 | – |
| Cc1ccc(C(C)(O)C(F)F)cc1-c1cnc2c(N)nc(-c3cn(C)nc3C)cn12 (stereo not drawn) [Example 38, 2-(3-(8-Amino-6-(1,3-dimethyl-1H-pyrazol-4-yl)imidazo[1,2-a]pyrazin-3-yl)-4-methylphenyl)-1,1-difluoropropan-2-ol] | – | < 100 | < 100 | < 100 | – |
| Cc1ccc(C(C)(O)C(F)(F)Cl)cc1-c1cnc2c(N)nc(C(F)(F)F)cn12 (stereo not drawn) [Example 268, 2-(3-(8-Amino-6-(trifluoromethyl)imidazo[1,2-a]pyrazin-3-yl)-4-methylphenyl)-1-chloro-1,1-difluoropropan-2-ol] | – | 100 to 500 | < 100 | 100 to 500 | – |
| Cc1ccc(C(C)(O)C(F)F)cc1-c1cnc2c(N)nc(-c3ccnn3C)cn12 (single isomer, unassigned) [Example 29, 2-(3-(8-Amino-6-(1-methyl-1H-pyrazol-5-yl)imidazo[1,2-a]pyrazin-3-yl)-4-methylphenyl)-1,1-difluoropropan-2-ol 1.2 trifluoroacetate salt] | – | 100 to 500 | < 100 | 100 to 500 | – |
| Cc1ccc(C(C)(O)C(F)(F)F)cc1-c1cnc2c(N)nc(-c3ccnc(CO)c3)cn12 (single isomer, unassigned) [Example 11, 2-(3-(8-amino-6-(2-(hydroxymethyl)pyridin-4-yl)imidazo[1,2-a]pyrazin-3-yl)-4-methylphenyl)-1,1,1-trifluoropropan-2-ol] | – | < 100 | < 100 | 100 to 500 | – |
| [2H]C([2H])([2H])n1nccc1-c1cn2c(-c3cc(C(C)(O)C(F)F)ccc3C)cnc2c(N)n1 (single isomer, unassigned) [Example 25, 2-(3-(8-Amino-6-(1-(methyl-d3)-1H-pyrazol-5-yl)imidazo[1,2-a]pyrazin-3-yl)-4-methylphenyl)-1,1-difluoropropan-2-ol trifluoroacetate salt] | – | 100 to 500 | < 100 | 100 to 500 | – |
| Cc1ccc(C(C)(O)C(F)F)cc1-c1cnc2c(N)nc(-c3ccc(CO)nc3)cn12 (stereo not drawn) [Example 46, 2-(3-(8-Amino-6-(6-(hydroxymethyl)pyridin-3-yl)imidazo[1,2-a]pyrazin-3-yl)-4-methylphenyl)-1,1-difluoropropan-2-ol trifluoroacetate] | – | 100 to 500 | < 100 | < 100 | – |

Continued, in another order:

| IC50 ([1]; THP-1 cells) [nM] | IC50 ([2]; read-out: PI3Kδ IC50) [nM] | IC50 [3] [nM] | IC50 [1, 4] [nM] | SMILES | IC50 ([2]; PI3Kδ IC50 (nM)) [nM] |
| --- | --- | --- | --- | --- | --- |
| 500 to 1000 | 500 to 2000 | < 100 | – | Cc1ccc(C(C)(O)C(F)F)cc1-c1cnc2c(N)nc(C(F)(F)F)cn12 (single isomer, unassigned) [Example 26, 2-(3-(8-Amino-6-(trifluoromethyl)imidazo[1,2-a]pyrazin-3-yl)-4-methylphenyl)-1,1-difluoropropan-2-ol] | – |
| – | < 100 | < 100 | < 100 | Cc1ccc(C(C)(O)C(F)(F)F)cc1-c1cnc2c(N)nc(C3CC(CO)C3)cn12 (single isomer, unassigned) [Example 207, 2-(3-(8-amino-6-(3-(hydroxymethyl)cyclobutyl)imidazo[1,2-a]pyrazin-3-yl)-4-methylphenyl)-1,1,1-trifluoropropan-2-ol trifluoroacetate] | – |
| 500 to 1000 | 100 to 500 | < 100 | – | Cc1ccc(C(O)(CO)C(F)(F)F)cc1-c1cnc2c(N)nc(C(F)(F)F)cn12 (single isomer, unassigned) [Example 73, 2-(3-(8-Amino-6-(trifluoromethyl)imidazo[1,2-a]pyrazin-3-yl)-4-methylphenyl)-3,3,3-trifluoropropane-1,2-diol] | – |
| – | < 100 | < 100 | < 100 | Cc1ccc(C(O)(C(N)=O)C(F)F)cc1-c1cnc2c(N)nc(C(F)(F)F)cn12 (stereo not drawn) [Example 89, 2-(3-(8-Amino-6-(trifluoromethyl)imidazo[1,2-a]pyrazin-3-yl)-4-methylphenyl)-3,3-difluoro-2-hydroxypropanamide] | – |
| – | < 100 | < 100 | > 1000 | Cc1ccc(C(C)(O)C(F)(F)F)cc1-c1cnc2c(N)nc(C(=O)NCC3(C#N)CCC3)cn12 (stereo not drawn) [Example 283, 8-Amino-N-((1-cyanocyclobutyl)methyl)-3-(2-methyl-5-(1,1,1-trifluoro-2-hydroxypropan-2-yl)phenyl)imidazo[1,2-a]pyrazine-6-carboxamide trifluoroacetate salt] | – |
| – | 100 to 500 | < 100 | < 100 | Cc1ccc(C(O)(C(N)=O)C(F)(F)F)cc1-c1cnc2c(N)nc(C(=O)NC3(C4CC4)CCOC3)cn12 (stereo not drawn) [Example 83, 8-Amino-3-(5-(3-amino-1,1,1-trifluoro-2-hydroxy-3-oxopropan-2-yl)-2-methylphenyl)-N-(3-cyclopropyltetrahydrofuran-3-yl)imidazo[1,2-a]pyrazine-6-carboxamide trifluoroacetate salt] | – |
| < 100 | < 100 | < 100 | – | Cc1ccc(C(C)(O)C(F)(F)F)cc1-c1cnc2c(N)nc(C3CC(CO)C3)cn12 (single isomer, unassigned) [Example 208, 2-(3-(8-amino-6-(3-(hydroxymethyl)cyclobutyl)imidazo[1,2-a]pyrazin-3-yl)-4-methylphenyl)-1,1,1-trifluoropropan-2-ol trifluoroacetate] | – |
